A short description of series [1]: Cure index (set-off cure test, sum of DL values). To be noted: Offset Black Ink 2; ketocoumarin 5.10% in Inventive PI Blend 2; ~32 mJ per pass, 100 m/min; lower is superior cure. An excerpt:
Offset Black Ink 2—based on a ketone functional resin, tri- and tetra-functional alkoxylated acrylates and approximately 14% carbon black pigment.
(§1) The inks were printed onto a carton board substrate (Incada Exel coated board from Iggesund) to a density of approximately 1.8-2.0 using an IGT C1 print proofer. These were cured at 100 m/min using a Primarc UV rig fitted with a single 300 W/inch medium pressure mercury lamp, operating at half power (˜32 mJ per pass). The number of passes required to cure was measured by a “set-off cure test” which is done by visually comparing the extent to which after each pass the ink has transferred to a piece of blank substrate under 10 tons pressure for 5 seconds. […] The amount of set-off is then measured using color computer software, which determines the average color density of the set-off ink compared to a blank piece of substrate. The amount of set-off is measured as the lightness “DL” of the blank substrate vs. the transferred ink film, measured using a Spectraflash 650 spectrophotometer. The DL value is measured for each pass of the ink underneath the curing lamp, using a fresh piece of substrate for each pass until the ink is deemed fully cured and there is no visible ink transfer. The cure index is calculated by adding the individual DL values and rounding the sum to the nearest whole number. For example, if 4 passes under the curing lamp was required to cure a given ink film, and the DL values for the first 3 passes were 8.89, 5.27, 2.15 respectively, then the sum of the figures would be 16.31, which would be rounded to a cure index of 16. Note that there is no DL value taken after the 4th pass, as the ink film was determined to be fully cured by the visual absence of ink transferred during the set-off cure test. […] The tables below show the results for the evaluations.

The nature of series [2]: Cure index (set-off cure test, sum of DL values). To be noted: Offset Black Ink 1; ketocoumarin 5.10% in Inventive PI Blend 1; ~32 mJ per pass, 100 m/min; lower is superior cure. How it is done:
Offset Black Ink 1—based on a urea-formaldehyde resin, trifunctional acrylate and approximately 13% carbon black pigment.
as §1

A short description of series [3]: Cure index of ink-jet magenta inks. To be noted: ketocoumarin 6.167% in Inventive Ink-Jet PI Blend, 84 mJ per pass, 70 m/min, rounded to nearest 0.5. As to the method:
Magenta ink-jet inks were prepared to assess the performance of the inventive ketocoumarin materials an ink-jet ink formulation. The magenta ink formulation is based on 17.5% of a magenta pigment concentrate and a blend of difunctional monomers which includes propoxylated neopentylglycol diacrylate, dipropyleneglycol diacrylate, tripropylene glycol diacrylate (all at approximately 15%) and 2-(2-Vinyloxyethoxy)ethyl acrylate (at approximately 20%).
The inks were printed onto white PE TopTrans top-coated label substrate using a No. 2 K-Bar (red). The No. 2 K-bar gives a film thickness of about 12 μm. The inks were cured at 70 m/min using a Primarc UV rig fitted with a single 300 W/inch medium pressure mercury lamp, operating at full power (84 mJ per pass). Cure index was determined using the same cure index test described above for the black offset inks.
The cure index results in Table 12 were determined using the same test method as described for the black offset inks in Tables 7-9 with one exception; in Table 12 the cure index figures were rounded to the nearest 0.5 rather than to the nearest whole number. It should be noted that the cure index numbers are a representation of cure at a relatively low UV lamp dose compared to that used in a commercial application. A commercial application would typically use higher UV lamp dosage and all of the above formulations would perform adequately under these conditions. The experiments have been set up to highlight differences in cure and therefore have been carried out at relatively low cure dose. In the above experiments an ink with a cure index of less than 4-5 would cure adequately using commercial lamp conditions. Inks with a cure index of much lower than 4-5 are, therefore, performing very well.

The nature of series [4]: Solubility by visual inspection of ink and prints. More on the design: key: Good=Soluble (no solid bits in the ink and good printability); OK=Partially insoluble (some solid bits in the ink and slightly poor printability); Poor=Very noticeable insolubility (very noticeable solid bits in the ink and poor printability). It is filed as physicochemical. As to conditions: visual inspection of inks and prints. As to the method:
The solubility of the materials was assessed by visual inspection of the inks and from visual inspection of the prints. Insolubility is reported as follows: Good=Soluble (no solid bits in the ink and good printability); OK=Partially insoluble (some solid bits in the ink and slightly poor printability); Poor=Very noticeable insolubility (very noticeable solid bits in the ink and poor printability).

Series [5] in a line: Cure index (set-off cure test, sum of DL values). To be noted: Offset Black Ink 3; ketocoumarin 6.000% in Inventive PI Blend 3; ~32 mJ per pass, 100 m/min; lower is superior cure.
Source text: Offset Black Ink 3—based on a ketone functional resin, tri- and tetra-functional alkoxylated acrylates and approximately 14% carbon black pigment.
as §1

SMILES strings stand for the structures.

`O=C(c1ccccc1)c1cc2ccccc2oc1=O` [Comparative Example 1, reference compound] showed a Cure index in series [1] of 24. Besides, the Cure index in series [2] was determined as 28. The compound also showed a Cure index in series [3] of 38. Also, in series [4], the “Solubility in Ink-Jet Magenta Ink” value is listed as “Poor”, the “Solubility in Offset Black Ink 1” value was “Poor”, the “Solubility in Offset Black Ink 2” value is reported as “Poor” and the “Solubility in Offset Black Ink 3” value was “Poor”. This compound registered a Cure index in series [5] of 27.
On to `COc1ccc2cc(C(=O)c3ccccc3)c(=O)oc2c1` [Comparative Example 2, reference compound], for which the Cure index in series [1] is on record as 13; in series [2] it was 52; in series [3], less than 1; in series [5] it was 33. For the same compound, the “Solubility in Ink-Jet Magenta Ink” value in series [4] is given as “Poor”. Also, in series [4], the “Solubility in Offset Black Ink 1” value is recorded as “Poor”. The “Solubility in Offset Black Ink 2” value in series [4] is reported as “Poor”. In addition, the “Solubility in Offset Black Ink 3” value in series [4] is listed as “Poor”.
As to `O=C(COc1ccc2cc(C(=O)c3ccccc3)c(=O)oc2c1)OCCOCCOC(=O)COc1ccc2cc(C(=O)c3ccccc3)c(=O)oc2c1` [Inventive Example 5], the Cure index in series [3] is reported as 9. In series [4], the “Solubility in Ink-Jet Magenta Ink” value is “Good”.
In series [1], `O=C(COc1ccc2cc(C(=O)c3ccccc3)c(=O)oc2c1)OCCOCCOCCOC(=O)COc1ccc2cc(C(=O)c3ccccc3)c(=O)oc2c1` [Inventive Example 11] had a Cure index of 23. Further, the Cure index in series [2] turned out to be 53. In series [3], this compound had a Cure index of 1. In series [4], the “Solubility in Ink-Jet Magenta Ink” value is “OK”, the “Solubility in Offset Black Ink 1” value is given as “OK”, the “Solubility in Offset Black Ink 2” value is listed as “OK” and the “Solubility in Offset Black Ink 3” value is reported as “OK”. This compound had a Cure index in series [5] of 42.
`CCOC(=O)COc1ccc2cc(C(=O)c3ccccc3)c(=O)oc2c1` [Inventive Example 12] yielded a Cure index in series [1] of 15. In series [2], this compound registered a Cure index of 46. Besides, the Cure index in series [3] worked out at 3. In addition, in series [4], the “Solubility in Ink-Jet Magenta Ink” value is “Poor”, the “Solubility in Offset Black Ink 1” value is on record as “OK”, the “Solubility in Offset Black Ink 2” value is given as “OK” and the “Solubility in Offset Black Ink 3” value was “OK”. In series [5], the Cure index is given as 26.
Compound `CCC(COC(=O)COc1ccc2cc(C(=O)c3ccccc3)c(=O)oc2c1)(COC(=O)COc1ccc2cc(C(=O)c3ccccc3)c(=O)oc2c1)COC(=O)COc1ccc2cc(C(=O)c3ccccc3)c(=O)oc2c1` [Inventive Example 14] registered a Cure index in series [1] of 7. In series [2], this compound gave a Cure index of 28. The Cure index in series [3] was 1. In addition, in series [4], the “Solubility in Ink-Jet Magenta Ink” value is listed as “Poor”, the “Solubility in Offset Black Ink 1” value is “OK”, the “Solubility in Offset Black Ink 2” value is given as “OK” and the “Solubility in Offset Black Ink 3” value is given as “OK”. Further, the Cure index in series [5] is recorded as 14.
As to `CCCCCCCCCCCCOC(=O)COc1ccc2cc(C(=O)c3ccccc3)c(=O)oc2c1` [Inventive Example 16], the Cure index in series [1] was 31; in series [2] it was 52; in series [3], 5; in series [5] it was 56. Also, the “Solubility in Ink-Jet Magenta Ink” value in series [4] is recorded as “Poor”. For the same compound, the “Solubility in Offset Black Ink 1” value in series [4] is on record as “OK”. Also, in series [4], the “Solubility in Offset Black Ink 2” value is “OK”. Further, the “Solubility in Offset Black Ink 3” value in series [4] was “OK”.
